Like-named read-outs stand apart in the source and are kept apart here.

The record followed here is publication PMC8451667 (Emerging Microbes & Infections, 2021).

Experiment [1] relates to A/California/04/2009 (H1N1) Ca/04. The experiment can be described thus: microbe, parasite or virus in culture. The experiment is classed as cell-based. The settings on record: Influenza A virus.
The test system of experiment [2] is Ca/04 OsR (A/California/04/2009 (H1N1)-H275Y). More on the design: species or system mice. As to conditions: mouse, in vivo.
The test system of experiment [3] is A/California/07/2009 (H1N1). Put plainly: microbe, parasite or virus in culture. The experiment is classed as cell-based, Influenza A virus.
[4] abbreviates: H1N1, read-out: EC50 (μM), A/California/04/2009 (H1N1) Ca/04.

For the compound `NC12CC3CC(CC(C3)C1)C2` [Amantadine], the EC50 in experiment [1] (setting [4]) was more than 20 µM.

In experiment [2], `CCOC(=O)C1=C[C@@H](OC(CC)CC)[C@H](NC(C)=O)[C@@H](N)C1` [Oseltamivir, Oseltamivir phosphate, reference compound] showed a Body weight loss of approximately 20% and a Survival of 16%.

Compound `[2H]C(NC12CC3CC(CC(O)(C3)C1)C2)c1ccc(I)s1` (stereo not shown) [UAWJ280, 3-{[(5-iodothiophen-2-yl)(D)methyl]amino}adamantan-1-ol] had a Body weight loss in experiment [2] of approximately 15%. In experiment [2], this compound showed a Survival of 65%. Besides, in experiment [2] (ip), the Clinical signs entry is given as “mild clinical signs”. For the same compound, the EC50 in experiment [1] (setting [4]) is 0.27 ± 0.04 µM; in experiment [3] (Influenza A virus, H1N1, read-out: EC50 (μM), serial passage), 0.27 µM. The “EC50 increase at passage 6” value in experiment [3] was 7 fold.

Consider `CCC(CC)O[C@@H]1C=C(C(=O)O)C[C@H](N)[C@H]1NC(C)=O` [Oseltamivir carboxylate], for which the EC50 in experiment [1] (H1N1, read-out: EC50 (nM), A/California/04/2009 (H1N1) Ca/04) stood at 0.0014 ± 0.00032 µM.
